Literature values as cited in patent publication US20150119272A1, “DOSE-RESPONSE MEDICAL OUTCOME MODEL PREDICTOR SYSTEM AND METHOD” (ROYAL COLLEGE OF SURGEONS IN IRELAND, priority 2012, published 2015).

Experiments:
Mcl-1 = Mcl-1 (Homo sapiens, UniProt Q07820); conditions: binding to Mcl-1; taken from literature (Lessene et al. 2008)
Bcl-(X)L = Bcl-(X)L (Homo sapiens, UniProt Q07817); conditions: binding to Bcl-(X)L; taken from literature (Lessene et al. 2008)
Sequence of Bcl-(X)L (Q07817 whole entry, species assumed): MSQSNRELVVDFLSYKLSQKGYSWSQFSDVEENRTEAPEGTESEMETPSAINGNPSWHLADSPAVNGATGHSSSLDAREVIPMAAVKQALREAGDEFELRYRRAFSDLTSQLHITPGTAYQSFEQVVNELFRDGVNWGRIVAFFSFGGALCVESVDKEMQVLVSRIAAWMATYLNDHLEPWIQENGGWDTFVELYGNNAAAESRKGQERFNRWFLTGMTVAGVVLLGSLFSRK

Sequence of Mcl-1 (Q07820 whole entry, species assumed): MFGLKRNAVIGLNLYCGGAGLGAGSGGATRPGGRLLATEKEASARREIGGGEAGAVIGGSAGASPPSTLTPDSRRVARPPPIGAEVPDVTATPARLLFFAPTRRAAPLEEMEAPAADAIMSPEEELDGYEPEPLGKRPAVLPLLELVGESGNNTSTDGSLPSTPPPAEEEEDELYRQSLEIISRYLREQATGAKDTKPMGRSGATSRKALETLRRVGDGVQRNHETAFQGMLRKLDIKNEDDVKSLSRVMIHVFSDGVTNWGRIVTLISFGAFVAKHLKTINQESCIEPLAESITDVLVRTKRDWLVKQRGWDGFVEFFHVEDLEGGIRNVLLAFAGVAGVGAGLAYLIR

Structure (SMILES): Cc1cc2c(C(C)C)c(O)c(O)c(C=O)c2c(O)c1-c1c(C)cc2c(C(C)C)c(O)c(O)c(C=O)c2c1O [Gossypol]
- Kd (Mcl-1): 25 nM
- Kd (Bcl-(X)L): 660 nM
